Converted amounts (≈) assume the structure as drawn. Read-outs that look alike come from different tables or passages of the source.
Columns and labels:
Mycobacterium kansasii = test: microbe, parasite or virus in culture; assay type: cell-based; details: 99% (2 log) inhibition
[1] = tested on: BCG (Bacillus Calmette-Guerin, an attenuated Mycobacterium bovis); test: microbe, parasite or virus in culture; assay type: cell-based; details: Mycobacterium tuberculosis variant bovis BCG, pH 5.8, pH 5.8
[2] = tested on: Mycobacterium tuberculosis; test: microbe, parasite or virus in culture; assay type: cell-based; details: 99% (2 log) inhibition
[3] = tested on: Mycobacterium tuberculosis H37RV; details: cited from earlier work
[4] = tested on: Mycobacterium tuberculosis; details: background statement; cited from earlier work
M. bovis = details: cited from earlier work
other mycobacteria = details: background statement; cited from earlier work
[5] = background statement; cited from earlier work
tuberculosis = details: applied subcutaneously; cited from earlier work
[6] = Mycobacterium tuberculosis, pH 5.8, M. tb. BUR, read-out: MIC
[7] = Mycobacterium tuberculosis, pH 5.8, M. tb. CES, read-out: MIC
[8] = Mycobacterium tuberculosis, pH 5.8, M. tb. DOL, read-out: MIC
[9] = Mycobacterium tuberculosis, pH 5.8, M. tb. DOU, read-out: MIC
[10] = Mycobacterium tuberculosis, pH 5.8, M. tb. DUB, read-out: MIC
[11] = Mycobacterium tuberculosis, pH 5.8, M. tb. GLA, read-out: MIC
[12] = Mycobacterium tuberculosis, pH 5.8, M. tb. ING, read-out: MIC
[13] = Mycobacterium tuberculosis, pH 5.8, M. tb. LFL, read-out: MIC
[14] = Mycobacterium tuberculosis, pH 5.8, M. tb. MCQ, read-out: MIC
[15] = Mycobacterium tuberculosis, pH 5.8, M. tb. SMA, read-out: MIC
[16] = Mycobacterium tuberculosis, pH 5.8, M. tb. WOO, read-out: MIC
[17] = Mycobacterium tuberculosis, pH 5.8, M. tb. BAK, read-out: MIC

**Q.** Which MIC (Mycobacterium kansasii; pH 5.8, M. kans. SCH) does the source give for `C=CCOC(=O)c1cnccn1` [Allyl Pyrazinoate] here?
**A.** 6.25 µg/mL (≈ 38.1 µM)

**Q.** And the MIC (Mycobacterium kansasii; pH 5.8, M. kans. SWK)?
**A.** 6.25 µg/mL (≈ 38.1 µM)

**Q.** What about the MIC [1] of the same compound?
**A.** 100 µg/mL (≈ 609 µM)

**Q.** What about the MIC ([2]; M. tb. BAK, pH 5.8) of the same compound?
**A.** 3.12 µg/mL (≈ 19 µM)

**Q.** What about the MIC [2, 6] of the same compound?
**A.** 6.25 µg/mL (≈ 38.1 µM)

**Q.** And the MIC [2, 7]?
**A.** ≤ 3.12 µg/mL

**Q.** What about the MIC [2, 8] of the same compound?
**A.** ≤ 3.12 µg/mL

**Q.** What about the MIC [2, 9] of the same compound?
**A.** 3.12 µg/mL (≈ 19 µM)

**Q.** What about the MIC [2, 10] of the same compound?
**A.** 6.25 µg/mL (≈ 38.1 µM)

**Q.** What about the MIC [2, 11] of the same compound?
**A.** 6.25 µg/mL (≈ 38.1 µM)

**Q.** And the MIC [2, 12]?
**A.** 3.12 µg/mL (≈ 19 µM)

**Q.** What about the MIC [2, 13] of the same compound?
**A.** 3.12 µg/mL (≈ 19 µM)

**Q.** And the MIC [2, 14]?
**A.** ≤ 3.12 µg/mL

**Q.** What about the MIC [2, 15] of the same compound?
**A.** 3.12 µg/mL (≈ 19 µM)

**Q.** And the MIC [2, 16]?
**A.** 6.25 µg/mL (≈ 38.1 µM)

**Q.** With `CN(C)CCOC(=O)c1cnccn1` [N,N-dimethyl-2-aminoethyl pyrazinoate] as the compound, how does the “in vitro activity against Mycobacterium tuberculosis H37RV” value [3] read?
**A.** active

**Q.** Which MIC (Mycobacterium kansasii; pH 5.8, M. kans. SCH) does the source give for `CCCOC(=O)c1cnccn1` [n-Propyl Pyrazinoate] here?
**A.** 12.5 µg/mL (≈ 75.2 µM)

**Q.** What about the MIC (Mycobacterium kansasii; pH 5.8, M. kans. SWK) of the same compound?
**A.** 6.25 µg/mL (≈ 37.6 µM)

**Q.** And the MIC [1]?
**A.** > 200 µg/mL

**Q.** What about the MIC [2, 17] of the same compound?
**A.** ≤ 3.12 µg/mL

**Q.** And the MIC [2, 6]?
**A.** ≤ 3.12 µg/mL

**Q.** What about the MIC [2, 7] of the same compound?
**A.** ≤ 3.12 µg/mL

**Q.** And the MIC [2, 8]?
**A.** ≤ 3.12 µg/mL

**Q.** What about the MIC [2, 9] of the same compound?
**A.** ≤ 3.12 µg/mL

**Q.** And the MIC [2, 10]?
**A.** ≤ 3.12 µg/mL

**Q.** What about the MIC [2, 11] of the same compound?
**A.** 6.25 µg/mL (≈ 37.6 µM)

**Q.** What about the MIC [2, 12] of the same compound?
**A.** ≤ 3.12 µg/mL

**Q.** What about the MIC [2, 13] of the same compound?
**A.** 6.25 µg/mL (≈ 37.6 µM)

**Q.** And the MIC [2, 14]?
**A.** ≤ 3.12 µg/mL

**Q.** What about the MIC [2, 15] of the same compound?
**A.** ≤ 3.12 µg/mL

**Q.** For `Cc1ccc(OC(=O)c2cnccn2)cc1` [p-Tolyl Pyrazinoate], which MIC (Mycobacterium kansasii; pH 5.8, M. kans. SCH) is on record?
**A.** 12.5 µg/mL (≈ 58.4 µM)

**Q.** And the MIC (Mycobacterium kansasii; pH 5.8, M. kans. SWK)?
**A.** 12.5 µg/mL (≈ 58.4 µM)

**Q.** And the MIC [1]?
**A.** 25 µg/mL (≈ 117 µM)

**Q.** What about the MIC ([2]; M. tb. DOU, pH 5.8) of the same compound?
**A.** 25 µg/mL (≈ 117 µM)

**Q.** What about the MIC [2, 17] of the same compound?
**A.** 12.5 µg/mL (≈ 58.4 µM)

**Q.** What about the MIC [2, 6] of the same compound?
**A.** 12.5 µg/mL (≈ 58.4 µM)

**Q.** What about the MIC [2, 7] of the same compound?
**A.** 12.5 µg/mL (≈ 58.4 µM)

**Q.** What about the MIC [2, 8] of the same compound?
**A.** 6.25 µg/mL (≈ 29.2 µM)

**Q.** And the MIC [2, 10]?
**A.** 25 µg/mL (≈ 117 µM)

**Q.** And the MIC [2, 11]?
**A.** 6.25 µg/mL (≈ 29.2 µM)

**Q.** And the MIC [2, 12]?
**A.** 25 µg/mL (≈ 117 µM)

**Q.** And the MIC [2, 13]?
**A.** 12.5 µg/mL (≈ 58.4 µM)

**Q.** What about the MIC [2, 14] of the same compound?
**A.** 6.25 µg/mL (≈ 29.2 µM)

**Q.** What about the MIC [2, 15] of the same compound?
**A.** 25 µg/mL (≈ 117 µM)

**Q.** And the MIC [2, 16]?
**A.** 25 µg/mL (≈ 117 µM)

**Q.** With `NC(=O)c1cnccn1` [pyrazinamide] as the compound, how does the MIC [1] read?
**A.** > 200 µg/mL

**Q.** What about the “activity against M. tuberculosis” value [4] of the same compound?
**A.** only active against Mycobacterium (M.) tuberculosis

**Q.** And the “activity against M. bovis” value (M. bovis)?
**A.** not active

**Q.** And the “activity against other mycobacteria” value (other mycobacteria)?
**A.** not active

**Q.** What about the hepatotoxicity [5] of the same compound?
**A.** hepatotoxicity

**Q.** What does the source list for `O=C(OCC(F)(F)F)c1cnccn1` [β, β, β-Trifluoroethyl Pyrazinoate]?
**A.** MIC (Mycobacterium kansasii; pH 5.8, M. kans. SCH): 100 µg/mL (≈ 485 µM); MIC (Mycobacterium kansasii; pH 5.8, M. kans. SWK): 200 µg/mL (≈ 970 µM); MIC [1]: 200 µg/mL (≈ 970 µM); MIC [2, 17]: 25 µg/mL (≈ 121 µM); MIC [2, 6]: 25 µg/mL (≈ 121 µM); MIC [2, 7]: 12.5 µg/mL (≈ 60.6 µM); MIC [2, 8]: 25 µg/mL (≈ 121 µM); MIC [2, 9]: 100 µg/mL (≈ 485 µM); MIC [2, 10]: 25 µg/mL (≈ 121 µM); MIC [2, 11]: 12.5 µg/mL (≈ 60.6 µM); MIC [2, 12]: 25 µg/mL (≈ 121 µM); MIC [2, 13]: 50 µg/mL (≈ 243 µM); MIC [2, 14]: 25 µg/mL (≈ 121 µM); MIC [2, 15]: 25 µg/mL (≈ 121 µM); MIC [2, 16]: 25 µg/mL (≈ 121 µM)

**Q.** For Isopropyl thiopyrazinoate, which “activity in a standardized mouse test” value (tuberculosis) is on record?
**A.** exhibited activity

From patent US4962111A (priority 1989, dated 1990)
